Active and inactive are the calls of the source. No cut-off for these calls is given here.
Key:
[1] = Cytotoxicity against human HEK293 cells assessed as inhibition of cell growth; type: toxicity, cell-based
MDA-MB-231 [2] = test: Induction of apoptosis in human MDA-MB-231 cells assessed as increase in BAX expression at 0.1 to 1 uM incubated for 24 hrs by Western blot analysis; type: functional, cell-based; conditions: dose 0.1-1 µM
BXPC-3 [3] = test: Induction of apoptosis in human BXPC-3 cells assessed as decrease in Bcl-2 expression at 0.1 to 1 uM incubated for 24 hrs by Western blot analysis; type: functional, cell-based; conditions: dose 0.1-1 µM
NIH3T3 = test: Antiproliferative activity against mouse NIH/3T3 cells cultured as 3D tumor spheroids assessed as reduction in pseudopodia on cell surface; type: functional, cell-based
SW480 = test: cells; conditions: Homo sapiens, SW480, 72 h
Description: Antiproliferative activity against human SW480 cells assessed as cell viability incubated for 72 hrs by MTT assay

[4] = Toxicity in mouse implanted with human BXPC-3 cells assessed as kidney damage at 50 mg/kg, po by H and E staining based analysis; type: organism-based; conditions: in vivo
BXPC-3 [5] = test: Effect on STAT3 level in human BXPC-3 cells incubated for 24 to 72 hrs by Western blot analysis; type: functional, cell-based; conditions: time 24-72 hrs
[6] = Volume of distribution at steady state in Sprague-Dawley rat at 5 mg/kg, iv; type: ADME, organism-based; conditions: in vivo, read-out: Vdss
BXPC-3 [7] = test: Induction of apoptosis in human BXPC-3 cells assessed as increase in BAX expression at 0.1 to 1 uM incubated for 24 hrs by Western blot analysis; type: functional, cell-based; conditions: dose 0.1-1 µM
A549/TR = test: cells; conditions: Homo sapiens, 72 h
Description: Antiproliferative activity against human A549/Taxol cells assessed as cell viability incubated for 72 hrs by MTT assay

MDA-MB-231 [8] = test: Inhibition of cell migration in human MDA-MB-231 cells assessed as decrease in cell migration incubated for 24 hrs by wound healing assay; type: functional, cell-based
BXPC-3 [9] = test: Antiproliferative activity against human BXPC-3 cells cultured as 3D tumor spheroids assessed as cell viability incubated for 7 days by CCK-8 assay; conditions: BXPC-3, 168 h
[10] = molecular target: Fibroblast growth factor receptor (Homo sapiens) (UniProt P22607+P11362+P22455+P21802); test: Inhibition of FGFR (unknown origin) by envision reader analysis; type: protein assay
Fibroblast growth factor receptor (Homo sapiens), sequence (P11362 whole entry, looked up): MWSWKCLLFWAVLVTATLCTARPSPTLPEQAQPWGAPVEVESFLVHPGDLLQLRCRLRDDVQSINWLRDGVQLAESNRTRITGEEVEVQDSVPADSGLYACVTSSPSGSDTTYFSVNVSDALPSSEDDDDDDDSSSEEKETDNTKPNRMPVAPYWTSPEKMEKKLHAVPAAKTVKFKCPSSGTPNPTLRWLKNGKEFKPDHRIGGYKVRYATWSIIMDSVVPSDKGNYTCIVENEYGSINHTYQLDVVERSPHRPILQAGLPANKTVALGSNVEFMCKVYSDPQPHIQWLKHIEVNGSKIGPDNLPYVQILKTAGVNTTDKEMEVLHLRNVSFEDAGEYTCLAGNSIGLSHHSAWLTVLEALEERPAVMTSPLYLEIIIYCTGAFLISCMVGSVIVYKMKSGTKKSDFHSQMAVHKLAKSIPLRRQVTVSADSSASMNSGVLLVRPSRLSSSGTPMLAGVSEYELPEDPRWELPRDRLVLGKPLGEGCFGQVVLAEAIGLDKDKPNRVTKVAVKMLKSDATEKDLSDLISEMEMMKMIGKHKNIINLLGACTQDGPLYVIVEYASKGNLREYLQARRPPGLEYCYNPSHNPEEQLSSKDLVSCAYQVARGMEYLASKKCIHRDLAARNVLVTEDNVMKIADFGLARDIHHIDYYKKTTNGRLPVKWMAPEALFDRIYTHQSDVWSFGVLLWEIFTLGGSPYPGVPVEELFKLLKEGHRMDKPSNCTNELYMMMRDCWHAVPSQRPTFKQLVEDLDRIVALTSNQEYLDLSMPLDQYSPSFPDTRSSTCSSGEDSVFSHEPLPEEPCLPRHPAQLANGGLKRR
Fibroblast growth factor receptor (Homo sapiens), sequence (P21802 whole entry, looked up): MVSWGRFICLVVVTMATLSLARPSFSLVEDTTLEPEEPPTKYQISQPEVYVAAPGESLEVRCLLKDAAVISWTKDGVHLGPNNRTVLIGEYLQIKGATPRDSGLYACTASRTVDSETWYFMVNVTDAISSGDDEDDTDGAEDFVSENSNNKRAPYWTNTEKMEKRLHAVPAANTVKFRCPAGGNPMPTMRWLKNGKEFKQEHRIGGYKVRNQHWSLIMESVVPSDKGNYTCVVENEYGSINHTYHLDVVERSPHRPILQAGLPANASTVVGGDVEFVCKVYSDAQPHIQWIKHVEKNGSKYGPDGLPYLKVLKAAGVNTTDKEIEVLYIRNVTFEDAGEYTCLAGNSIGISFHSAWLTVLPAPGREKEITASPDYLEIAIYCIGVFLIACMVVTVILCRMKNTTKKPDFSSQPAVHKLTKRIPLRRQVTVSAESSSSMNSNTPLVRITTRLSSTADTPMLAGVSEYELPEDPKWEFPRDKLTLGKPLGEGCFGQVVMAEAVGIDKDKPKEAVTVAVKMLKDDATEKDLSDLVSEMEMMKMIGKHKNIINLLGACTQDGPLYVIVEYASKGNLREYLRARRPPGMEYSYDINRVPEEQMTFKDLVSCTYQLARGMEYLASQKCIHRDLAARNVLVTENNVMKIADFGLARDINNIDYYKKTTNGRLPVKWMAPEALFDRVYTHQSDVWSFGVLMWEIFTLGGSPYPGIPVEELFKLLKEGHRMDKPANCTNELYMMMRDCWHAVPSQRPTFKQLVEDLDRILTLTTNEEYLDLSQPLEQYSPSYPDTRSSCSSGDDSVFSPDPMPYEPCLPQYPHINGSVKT
Fibroblast growth factor receptor (Homo sapiens), sequence (P22455 whole entry, looked up): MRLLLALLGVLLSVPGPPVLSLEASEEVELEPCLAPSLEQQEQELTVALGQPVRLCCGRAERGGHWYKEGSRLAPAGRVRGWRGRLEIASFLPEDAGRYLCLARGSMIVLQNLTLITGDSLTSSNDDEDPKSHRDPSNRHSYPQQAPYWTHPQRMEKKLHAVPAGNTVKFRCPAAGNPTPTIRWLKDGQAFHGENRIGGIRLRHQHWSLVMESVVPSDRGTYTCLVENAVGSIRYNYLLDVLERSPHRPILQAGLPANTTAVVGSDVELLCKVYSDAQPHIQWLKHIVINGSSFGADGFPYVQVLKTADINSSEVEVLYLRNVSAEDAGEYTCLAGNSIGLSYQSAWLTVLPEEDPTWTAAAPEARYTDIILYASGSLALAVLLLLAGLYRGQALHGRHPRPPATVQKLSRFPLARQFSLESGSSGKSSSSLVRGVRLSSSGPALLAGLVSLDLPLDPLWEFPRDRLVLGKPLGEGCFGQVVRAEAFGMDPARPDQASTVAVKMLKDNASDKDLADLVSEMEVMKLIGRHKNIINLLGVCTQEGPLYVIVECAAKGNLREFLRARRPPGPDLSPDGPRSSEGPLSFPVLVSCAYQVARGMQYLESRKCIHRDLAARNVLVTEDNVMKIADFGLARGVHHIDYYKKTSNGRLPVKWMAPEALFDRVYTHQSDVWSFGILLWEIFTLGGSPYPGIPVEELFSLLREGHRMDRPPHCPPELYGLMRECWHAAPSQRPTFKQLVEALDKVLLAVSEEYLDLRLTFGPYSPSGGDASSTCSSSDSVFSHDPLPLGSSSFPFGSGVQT
Fibroblast growth factor receptor (Homo sapiens), sequence (P22607 whole entry, looked up): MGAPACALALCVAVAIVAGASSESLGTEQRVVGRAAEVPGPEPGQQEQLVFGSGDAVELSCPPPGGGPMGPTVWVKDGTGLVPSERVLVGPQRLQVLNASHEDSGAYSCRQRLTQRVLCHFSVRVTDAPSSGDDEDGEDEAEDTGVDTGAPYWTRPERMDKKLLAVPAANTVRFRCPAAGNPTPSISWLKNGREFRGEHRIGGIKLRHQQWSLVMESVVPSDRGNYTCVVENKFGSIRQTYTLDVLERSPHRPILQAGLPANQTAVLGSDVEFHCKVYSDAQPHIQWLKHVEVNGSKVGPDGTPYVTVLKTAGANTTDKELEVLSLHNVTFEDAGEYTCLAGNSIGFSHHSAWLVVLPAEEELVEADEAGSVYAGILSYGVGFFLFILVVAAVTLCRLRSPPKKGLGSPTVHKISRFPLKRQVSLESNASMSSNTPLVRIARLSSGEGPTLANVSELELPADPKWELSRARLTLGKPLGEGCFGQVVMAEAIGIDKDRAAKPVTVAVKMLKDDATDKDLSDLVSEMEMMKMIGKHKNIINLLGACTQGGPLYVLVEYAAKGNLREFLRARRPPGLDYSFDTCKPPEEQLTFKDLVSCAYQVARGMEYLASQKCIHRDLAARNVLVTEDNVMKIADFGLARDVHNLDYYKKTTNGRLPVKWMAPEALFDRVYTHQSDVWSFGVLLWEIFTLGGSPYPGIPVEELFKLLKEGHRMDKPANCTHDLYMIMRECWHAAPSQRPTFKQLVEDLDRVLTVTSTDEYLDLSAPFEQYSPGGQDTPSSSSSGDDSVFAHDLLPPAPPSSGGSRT

MDA-MB-231 [11] = test: Effect on E-cadherin expression in TGF-beta induced human MDA-MB-231 cells at 0.1 to 0.5 uM incubated for 24 hrs by immunofluorescence assay; type: functional, cell-based; conditions: dose 0.1-0.5 µM
MDA-MB-231 [12] = test: Induction of apoptosis in human MDA-MB-231 cells by annexin V-FITC/propidium iodide staining-based flow cytometry analysis; type: functional, cell-based
MDA-MB-231 [13] = test: cells; conditions: Homo sapiens, MDA-MB-231, 72 h
Description: Antiproliferative activity against human MDA-MB-231 cells assessed as cell viability incubated for 72 hrs by MTT assay

HUVEC [14] = test: Anti-angiogenesis activity in HUVEC assessed as reduction in tube formation at 0.5 to 2 uM incubated for 24 hrs by Calcein AM staining based light microscopic analysis; type: functional, cell-based; conditions: Homo sapiens, dose 0.5-2 µM
cells = conditions: Homo sapiens, CDDP-resistant A549 cell, 72 h
Description: Antiproliferative activity against human CDDP-resistant A549 cell assessed as cell viability incubated for 72 hrs by MTT assay

[15] = Metabolic stability in rat liver microsome assessed as half life measured upto 240 mins by HPLC analysis; type: ADME; conditions: liver microsomes
HUVEC [16] = test: Anti-angiogenesis activity in HUVEC assessed as reduction in number of vascular nodes at 0.5 to 2 uM incubated for 24 hrs by Calcein AM staining based light microscopic analysis; type: functional, cell-based; conditions: Homo sapiens, dose 0.5-2 µM
[17] = Toxicity in mouse implanted with human BXPC-3 cells assessed as liver damage at 50 mg/kg, po by H and E staining based analysis; type: organism-based; conditions: in vivo
MDA-MB-231 [18] = conditions: Homo sapiens, MDA-MB-231, 168 h
BXPC-3 [19] = test: Inhibition of colony formation in human BXPC-3 cells at 0.5 uM incubated for 72 hrs; type: functional, cell-based
[20] = Clearance in Sprague-Dawley rat at 5 mg/kg, iv; type: ADME, organism-based; conditions: in vivo
[21] = AUC (0 to last) in Sprague-Dawley rat at 5 mg/kg, iv; type: ADME, organism-based; conditions: Sprague-Dawley, in vivo
PC-9 = test: cells; conditions: Homo sapiens, PC-9, 72 h
Description: Antiproliferative activity against human PC-9 cells assessed as cell viability incubated for 72 hrs by MTT assay

Homo sapiens = organism: Homo sapiens; test: Inhibition of SRC (unknown origin) by envision reader analysis
Mitochondrial membrane = test: Induction of mitochondrial membrane potential in mouse NIH/3T3 cells assessed as decrease in red fluorescence intensity incubated for 48 hrs by JC-1 staining based flow cytometry; type: cell membranes
[22] = Oral bioavailability in Sprague-Dawley rat at 50 mg/kg; type: ADME, organism-based; conditions: Sprague-Dawley, in vivo
[23] = system: Osimertinib-resistant NCI-H1975 cell; test: cells; conditions: Homo sapiens, 72 h
[24] = Cytotoxicity against mouse NIH/3T3 cells assessed as cell viability incubated for 72 hrs by MTT assay; type: toxicity, cell-based, NIH3T3
[25] = Half life in Sprague-Dawley rat at 50 mg/kg, po; type: ADME, organism-based; conditions: in vivo
[26] = molecular target: Vascular endothelial growth factor receptor 2 (Homo sapiens, UniProt P35968); test: Inhibition of KDR (unknown origin) by envision reader analysis
Vascular endothelial growth factor receptor 2, sequence (P35968 whole entry): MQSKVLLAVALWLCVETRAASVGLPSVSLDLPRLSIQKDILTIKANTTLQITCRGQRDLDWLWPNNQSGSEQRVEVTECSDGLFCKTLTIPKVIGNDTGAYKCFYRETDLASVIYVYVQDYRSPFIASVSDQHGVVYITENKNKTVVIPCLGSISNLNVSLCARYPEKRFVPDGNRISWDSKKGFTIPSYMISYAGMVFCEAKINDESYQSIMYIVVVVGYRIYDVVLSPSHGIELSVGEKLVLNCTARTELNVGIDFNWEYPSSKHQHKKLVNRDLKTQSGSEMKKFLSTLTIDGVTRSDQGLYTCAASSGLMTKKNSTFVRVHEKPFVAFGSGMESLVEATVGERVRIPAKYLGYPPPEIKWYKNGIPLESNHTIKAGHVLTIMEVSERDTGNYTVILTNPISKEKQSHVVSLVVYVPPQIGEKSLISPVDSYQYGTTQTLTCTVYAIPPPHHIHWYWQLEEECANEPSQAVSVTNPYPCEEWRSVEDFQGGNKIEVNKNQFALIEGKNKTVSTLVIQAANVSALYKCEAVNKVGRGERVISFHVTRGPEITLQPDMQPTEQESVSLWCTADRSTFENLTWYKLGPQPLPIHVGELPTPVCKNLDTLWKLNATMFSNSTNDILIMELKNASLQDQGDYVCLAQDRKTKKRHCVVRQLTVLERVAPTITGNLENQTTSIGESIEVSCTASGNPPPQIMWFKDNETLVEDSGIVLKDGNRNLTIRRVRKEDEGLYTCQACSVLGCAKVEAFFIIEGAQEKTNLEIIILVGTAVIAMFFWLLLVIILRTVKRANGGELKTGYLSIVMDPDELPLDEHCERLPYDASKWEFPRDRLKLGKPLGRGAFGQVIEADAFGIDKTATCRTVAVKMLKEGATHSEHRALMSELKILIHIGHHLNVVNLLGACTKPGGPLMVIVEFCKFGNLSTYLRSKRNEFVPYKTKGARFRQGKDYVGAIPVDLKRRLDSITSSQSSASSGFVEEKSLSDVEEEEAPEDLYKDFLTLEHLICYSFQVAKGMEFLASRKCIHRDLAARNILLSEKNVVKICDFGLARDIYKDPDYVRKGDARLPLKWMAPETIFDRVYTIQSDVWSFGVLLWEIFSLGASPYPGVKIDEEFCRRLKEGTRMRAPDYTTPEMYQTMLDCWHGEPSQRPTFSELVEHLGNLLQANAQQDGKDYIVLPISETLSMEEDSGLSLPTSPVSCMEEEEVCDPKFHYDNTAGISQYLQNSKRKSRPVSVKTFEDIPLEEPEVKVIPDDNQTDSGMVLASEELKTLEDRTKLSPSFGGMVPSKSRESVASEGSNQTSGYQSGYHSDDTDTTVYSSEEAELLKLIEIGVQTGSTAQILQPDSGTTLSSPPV

[27] = molecular target: Tyrosine-protein kinase ABL1 (Homo sapiens) (UniProt P00519); test: Inhibition of ABL1 (unknown origin) by envision reader analysis
[28] = Toxicity in mouse implanted with human BXPC-3 cells assessed as spleen damage at 50 mg/kg, po by H and E staining based analysis; type: organism-based; conditions: in vivo
[29] = Cytotoxicity against human HK-2 cells assessed as inhibition of cell growth; type: toxicity, cell-based
BXPC-3 [30] = test: Induction of apoptosis in human BXPC-3 cells by annexin V-FITC/propidium iodide staining-based flow cytometry analysis; type: functional, cell-based
BXPC-3 [31] = test: Inhibition of cell migration in human BXPC-3 cells assessed as decrease in cell migration incubated for 24 hrs by wound healing assay; type: functional, cell-based
BXPC-3 [32] = test: Down regulation of Ki67 expression in human BXPC-3 cells by immunofluorescence assay; type: functional, cell-based

For `CCN1CCN(C(C)C(=O)N(C)c2ccc(N/C(=C3\C(=O)Nc4cc(Cl)ccc43)c3ccccc3)cc2)CC1` (racemic), the IC50 [1] was > 10 µM, the Activity (MDA-MB-231 [2]) was “Active” and the Activity (BXPC-3 [3]) was “Active”. For the same compound, the Activity (NIH3T3) was “Active”, the IC50 (SW480) was 5.91 µM and the Activity [4] was “Non-toxic”. The Activity (BXPC-3 [5]) was “Active”, the Vd [6] was 12.8 L/kg and the Activity (BXPC-3 [7]) was “Active”. For the same compound, the IC50 (A549/TR) was 4.77 µM, the inhibition (MDA-MB-231 [8]) was “Active” and the IC50 (BXPC-3 [9]) was 1.62 µM. For the same compound, the inhibition [10] was “Active”, the Activity (MDA-MB-231 [11]) was “Active” and the Activity (MDA-MB-231 [12]) was “Active”. For the same compound, the IC50 (MDA-MB-231 [13]) was 1.16 µM, the Activity (HUVEC [14]) was “Active” and the IC50 (cells) was 5.4 µM. For the same compound, the half-life [15] was 0.518 h, the Activity (HUVEC [16]) was “Active” and the Activity [17] was “Non-toxic”. For the same compound, the IC50 (MDA-MB-231 [18]) was 2.22 µM, the inhibition (BXPC-3 [19]) was “Active” and the clearance [20] was 2.79 L/h/kg. The AUC(0-t) [21] was 1.77 µg·h/mL, the IC50 (PC-9) was 5.91 µM and the inhibition (Homo sapiens) was “Active”. The Activity (Mitochondrial membrane) was “Active”, the bioavailability [22] was 6.53% and the IC50 [23] was 1.12 µM. The IC50 at 72 h [24] was 1.14 µM, the half-life [25] was 18.8 h and the IC50 [26] was 0.00152 µM. For the same compound, the inhibition [27] was “Active”, the Activity [28] was “Non-toxic” and the IC50 [29] was 8.35 µM. The Activity (BXPC-3 [30]) was “Active”, the inhibition (BXPC-3 [31]) was “Active” and the Activity (BXPC-3 [32]) was “Active”.
